Molecular target: T1, TspDTI (Thermus sp. DT, UniProt A8QN47)
T1 construct: recombinant from E. coli DH11S [pRZ-TspDTI], one extra Ala codon (GCG) after the start Met; native enzyme from Thermus sp; DT also purified; monomer; N-terminus […]
Experiment: lambda DNA cleavage, agarose gel
Assay type: biochemical
Conditions: Mg2+ restriction buffer, 70 C, 30 min, allosteric activator (site not established)

T1 sequence (A8QN47 entry or part of it): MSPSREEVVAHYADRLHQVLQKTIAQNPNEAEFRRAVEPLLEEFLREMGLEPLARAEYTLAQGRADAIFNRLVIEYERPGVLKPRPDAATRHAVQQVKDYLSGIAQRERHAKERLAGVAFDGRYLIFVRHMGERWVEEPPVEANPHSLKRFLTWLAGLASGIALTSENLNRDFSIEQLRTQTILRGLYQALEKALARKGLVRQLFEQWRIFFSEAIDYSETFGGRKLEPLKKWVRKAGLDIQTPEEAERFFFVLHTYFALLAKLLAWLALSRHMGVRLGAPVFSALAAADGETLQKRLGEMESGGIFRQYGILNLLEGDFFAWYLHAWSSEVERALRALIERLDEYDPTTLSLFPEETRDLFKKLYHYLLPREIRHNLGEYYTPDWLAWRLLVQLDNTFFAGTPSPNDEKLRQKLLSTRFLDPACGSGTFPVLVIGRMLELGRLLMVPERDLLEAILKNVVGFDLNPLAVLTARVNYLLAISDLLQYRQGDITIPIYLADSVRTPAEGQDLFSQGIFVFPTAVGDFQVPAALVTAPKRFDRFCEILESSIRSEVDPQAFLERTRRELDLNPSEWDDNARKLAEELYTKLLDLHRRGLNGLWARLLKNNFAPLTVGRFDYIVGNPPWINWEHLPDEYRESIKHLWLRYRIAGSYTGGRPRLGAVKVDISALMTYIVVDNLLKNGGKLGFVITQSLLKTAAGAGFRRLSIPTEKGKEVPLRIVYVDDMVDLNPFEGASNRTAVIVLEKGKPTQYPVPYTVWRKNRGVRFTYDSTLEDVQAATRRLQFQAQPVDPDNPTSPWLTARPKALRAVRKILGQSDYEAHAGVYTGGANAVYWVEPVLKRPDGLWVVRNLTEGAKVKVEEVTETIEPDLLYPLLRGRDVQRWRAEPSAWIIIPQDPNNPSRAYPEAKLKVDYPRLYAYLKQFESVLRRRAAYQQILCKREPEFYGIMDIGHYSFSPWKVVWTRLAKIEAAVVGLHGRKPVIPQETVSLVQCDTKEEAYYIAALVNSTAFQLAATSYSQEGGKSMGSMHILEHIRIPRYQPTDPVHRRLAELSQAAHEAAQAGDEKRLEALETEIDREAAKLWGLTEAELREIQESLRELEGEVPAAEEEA

Row | Compound | lambda DNA cleavage, agarose gel (stimulates REase at 50 uM SAM, also methyl donor of the MTase activity (200 uM)) | lambda DNA cleavage, agarose gel (stimulates REase at 50 uM SIN, SAM analogue, not a methyl donor)
1 | C[S+](CC[C@H](N)C(=O)O)C[C@H]1O[C@@H](n2cnc3c(N)ncnc32)[C@H](O)[C@@H]1O (some centres unmarked) [SAM] | is stimulated equally by both SAM and its analogue - SIN | –
2 | Nc1ncnc2c1ncn2[C@@H]1O[C@H](C[C@@H](N)CC[C@H](N)C(=O)O)[C@@H](O)[C@H]1O [SIN] | – | is stimulated equally by both SAM and its analogue - SIN
